These results are taken from patent US11253516B2, “N2,N4-diphenylpyrimidine-2,4-diamine derivative, method for preparing same, and pharmaceutical composition containing same as active ingredient for prevention or treatment of cancer” (Korea Research Institute of Chemical Technology, priority 2017, dated 2022).

Like-named read-outs stand apart in the source and are kept apart here. Some results are limits rather than exact numbers.

The target of one series is EGFR wt. (Homo sapiens (Human), UniProt P00533). Nature of the series: HTRF enzyme assay, wild-type EGFR. In kind it is biochemical. To be noted: recombinant enzyme. The procedure: (§1) The measurement of an activity on wild-type and EGFR mutation enzyme of the compound of the present invention was experimented by utilizing the HTRF system sold by Cisbio, as follow.
(§2) The composition of the assay buffer used in the activity measurement was 50 mM Tris-HCl pH 7.5, 100 mM NaCl, 7.5 mM MgCl2, 3 mM KCl, 0.01% Tween 20, 0.1% BSA, 1 mM DTT. The enzymatic reaction was carried out hereto by using the peptide substrate labeled with ATP of […] concentration and biotin of […] concentration. The analysis of an EGFR activity inhibitory effect of the compound was carried out in accordance with the analysis reaction recipe below.
(§3) Component 1: […] of EGFR wild-type or mutation enzyme
(§4) Component 2: […] of compound solution
(§5) Component 3: […] of peptide labeled with ATP and biotin
(§6) The enzymatic reaction was initiated by mixing Component 1 and Component 2 first, and then, adding component 3. After the reaction for 2 hours at 37° C., […] of a measurement solution consisting of streptavidin-XL665 provided by Cisbio and anti-phosphotyrosine antibody labeled with europium was added to the enzymatic reaction solution and reacted for 1 hour at ambient temperature. […] The measurement values measured at the seven concentrations of the compound were analyzed by using the Prism program (version 5.01, Graphpad Software, Inc.), and IC50 value of the compound was calculated, which is an inhibitory ability indicator.

A further series addresses EGFR del19 (Homo sapiens (Human), UniProt P00533, DEL746-750). Nature of the series: HTRF enzyme assay, EGFR del19. The class given is biochemical. To be noted: recombinant enzyme. Here is the method: as §1, §2, §3, §4, §5, §6
The target in another series is EGFR del19/T790M (Homo sapiens (Human), UniProt P00533, DEL746-750/T790M). Briefly: HTRF enzyme assay, EGFR del19/T790M. The class given is biochemical. To be noted: recombinant enzyme. The procedure: as §1, §2, §3, §4, §5, §6
Another series has as its target FLT3(D835Y) (Homo sapiens (Human), UniProt P36888, D835Y). Nature of the series: KINOMEscan binding, FLT3(D835Y). Here is the method:
(§7) The inhibitory activity on FLT kinase, such as wild-type FLT1, FLT3, FLT4, and FLT3 mutation forms, FLT3(D835H), FLT3(D835V), FLT3(D835Y), FLT3(ITD), FLT3(ITD,D835V), FLT3(ITD,F691L), FLT3(K663Q), FLT3(N841I), FLT3(R834Q) was measured.
(§8) FLT3 kinase inhibition was carried out by KINOMEscan method (DiscoverX Inc.). KINOMEscan method consists of the following processes. T7 bacteriophage labeled with FLT kinase was cultured by the infection to E. coli derived from BL21. After the infection of E. coli in the condition of 0.4 of MOI (multiplicity of infection), it was cultured for 90 to 150 minutes at 32° C. to lyse E. coli. The cell debris was removed by centrifugation and filtration, and the kinase protein present in the supernatant was secured. Additionally, the kinase protein was labeled with DNA for the qPCR measurement. The magnetic beads labeled with streptavidin were treated with the standard compound labeled with biotin and reacted for 30 minutes. The resulting beads were used as affinity beads for the measurement of a kinase activity. The binding reaction was initiated with mixing a kinase protein, the affinity beads bound with a ligand, and the compound. In this case, the used buffer solution was 20% SeaBlock, 0.17×PBS, 0.05% Tween 20, 6 mM DTT. […] The affinity of the compound to be tested was indirectly measured by Quantifying the eluted kinase by […].

The next series concerns the target FLT3(ITD, F691L) (Homo sapiens, UniProt P36888, F691L/ITD). Briefly: KINOMEscan binding, FLT3(ITD, F691L). Here is the method:
as §7, §8

In another series the target is FLT3(N841I) (Homo sapiens (Human), UniProt P36888, N841I). Briefly: KINOMEscan binding, FLT3(N841I). The procedure:
as §7, §8

The next series addresses FLT3(R834Q) (Homo sapiens (Human), UniProt P36888, R834Q). Briefly: KINOMEscan binding, FLT3(R834Q). The procedure: as §7, §8
Series [1] has as its system Ba/F3 Del19/T790M/C797S cell line. Briefly: Relative cell viability alone or in combination with cetuximab. In kind it is cell-based. To be noted: for viability at 0.03 µM: Mus musculus; for cell viability decreased than brigatinib in combination with cetuximab: combination with 10 μg cetuximab vs 30 nM brigatinib plus cetuximab. The text has this:
In order to confirm a cell activity on Ba/F3 Del19/T790M/C797S cell line when administering the compound according to the present invention in combination with a conventional drug, cetuximab to be used in single therapy or combination therapy with anticancer chemotherapy in metastatic colorectal cancer, metastatic squamous epithelium head and neck cancer and the like was used to evaluate the cell activity according to the combination administration.
Specifically, brigatinib was used as a control drug, and each of 30 nM of brigatinib, 30 nM of the compound of Example 10 according to the present invention, and 15 nM of the compound of Example 11 was administered to Ba/F3 Del19/T790M/C797S cell line in combination with 10 μg of cetuximab, which is a monoclonal antibody.

The mark [2] stands for this setting: BaF3, 30 nM Example 10 or 15 nM Example 11 alone vs 10 μg cetuximab alone, read-out: lower cell viability when administered alone than cetuximab.
[3] abbreviates: BaF3, 30 nM Example 10 or 15 nM Example 11 plus 10 μg cetuximab vs alone, read-out: cell viability decreased when administered in combination with cetuximab than when administered alone.

Chain of EGFR del19/T790M (P00533 other isoform, or with tags, fused parts or gaps T790M/del 1-668/del 746-750 limits assumed): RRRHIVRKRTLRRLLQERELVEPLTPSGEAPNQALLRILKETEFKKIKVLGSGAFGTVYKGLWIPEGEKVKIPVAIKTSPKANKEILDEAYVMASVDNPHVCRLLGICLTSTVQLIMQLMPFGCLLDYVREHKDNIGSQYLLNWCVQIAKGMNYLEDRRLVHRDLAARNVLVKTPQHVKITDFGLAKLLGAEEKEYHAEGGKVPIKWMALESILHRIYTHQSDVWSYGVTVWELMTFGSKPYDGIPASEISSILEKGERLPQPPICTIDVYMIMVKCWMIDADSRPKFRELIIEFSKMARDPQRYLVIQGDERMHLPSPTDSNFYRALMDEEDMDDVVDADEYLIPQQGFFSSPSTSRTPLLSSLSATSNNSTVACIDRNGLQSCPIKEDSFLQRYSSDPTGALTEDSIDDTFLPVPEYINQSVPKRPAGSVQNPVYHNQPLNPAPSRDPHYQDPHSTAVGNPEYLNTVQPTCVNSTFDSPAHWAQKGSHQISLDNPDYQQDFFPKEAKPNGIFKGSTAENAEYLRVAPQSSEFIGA
Chain of EGFR wt. (P00533 25-1210): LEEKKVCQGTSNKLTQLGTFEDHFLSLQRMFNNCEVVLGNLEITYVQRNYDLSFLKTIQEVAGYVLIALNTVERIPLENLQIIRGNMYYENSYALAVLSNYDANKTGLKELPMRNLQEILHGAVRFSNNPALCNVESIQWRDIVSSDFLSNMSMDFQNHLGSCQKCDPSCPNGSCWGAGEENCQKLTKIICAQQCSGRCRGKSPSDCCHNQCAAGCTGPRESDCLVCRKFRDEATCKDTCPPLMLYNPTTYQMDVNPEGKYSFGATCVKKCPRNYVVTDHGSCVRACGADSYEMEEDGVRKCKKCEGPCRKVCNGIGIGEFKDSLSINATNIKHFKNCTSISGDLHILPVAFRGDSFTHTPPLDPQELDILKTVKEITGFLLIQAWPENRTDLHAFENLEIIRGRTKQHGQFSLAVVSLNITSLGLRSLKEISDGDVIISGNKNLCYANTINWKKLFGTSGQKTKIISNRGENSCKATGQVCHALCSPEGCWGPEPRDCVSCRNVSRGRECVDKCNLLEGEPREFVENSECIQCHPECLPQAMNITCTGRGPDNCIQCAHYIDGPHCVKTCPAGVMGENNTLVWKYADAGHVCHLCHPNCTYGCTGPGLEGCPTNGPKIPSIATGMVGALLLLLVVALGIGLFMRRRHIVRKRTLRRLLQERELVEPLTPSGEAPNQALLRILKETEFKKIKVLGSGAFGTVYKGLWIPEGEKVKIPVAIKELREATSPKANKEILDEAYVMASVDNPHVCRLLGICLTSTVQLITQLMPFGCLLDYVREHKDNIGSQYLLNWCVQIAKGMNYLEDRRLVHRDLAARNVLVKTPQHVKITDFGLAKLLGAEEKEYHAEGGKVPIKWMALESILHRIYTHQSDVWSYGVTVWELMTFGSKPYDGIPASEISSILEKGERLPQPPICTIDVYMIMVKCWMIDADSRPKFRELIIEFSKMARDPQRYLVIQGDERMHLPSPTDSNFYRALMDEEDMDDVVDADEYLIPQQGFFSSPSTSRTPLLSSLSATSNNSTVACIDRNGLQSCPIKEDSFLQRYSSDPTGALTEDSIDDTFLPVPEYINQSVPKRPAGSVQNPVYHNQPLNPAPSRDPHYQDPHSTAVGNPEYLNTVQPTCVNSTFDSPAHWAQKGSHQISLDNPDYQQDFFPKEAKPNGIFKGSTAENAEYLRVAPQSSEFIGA
Chain of EGFR del19 (P00533 other isoform, or with tags, fused parts or gaps del 1-668/del 746-750 limits assumed): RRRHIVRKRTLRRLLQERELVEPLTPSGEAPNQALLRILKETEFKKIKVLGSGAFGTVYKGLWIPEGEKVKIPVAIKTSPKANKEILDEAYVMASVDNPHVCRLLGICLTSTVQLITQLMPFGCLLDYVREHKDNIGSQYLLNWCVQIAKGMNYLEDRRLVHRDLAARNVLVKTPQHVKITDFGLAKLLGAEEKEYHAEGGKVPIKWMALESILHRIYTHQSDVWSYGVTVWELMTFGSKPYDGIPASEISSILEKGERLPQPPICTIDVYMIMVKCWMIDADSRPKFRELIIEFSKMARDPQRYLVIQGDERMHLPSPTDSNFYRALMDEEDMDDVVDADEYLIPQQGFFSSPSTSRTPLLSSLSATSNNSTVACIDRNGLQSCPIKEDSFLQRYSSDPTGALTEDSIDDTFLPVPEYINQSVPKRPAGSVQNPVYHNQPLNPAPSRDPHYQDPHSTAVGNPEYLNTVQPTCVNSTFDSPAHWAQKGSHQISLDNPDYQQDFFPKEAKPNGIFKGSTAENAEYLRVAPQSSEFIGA

Regarding `COc1cc(N2CCC(N(C)C)CC2)ccc1Nc1ncc(Cl)c(Nc2ccccc2NS(C)(=O)=O)n1` [Example 11, N-(2-((5-chloro-2-((4-(4-(dimethylamino)piperidin-1-yl)-2-methoxyphenyl)amino)pyrimidin-4-yl)amino)phenyl)methanesulfonamide], the IC50 is 280 nM on EGFR wt., 7.8 nM at EGFR del19 and 3.1 nM on EGFR del19/T790M. The Kd worked out at 1.5 nM on FLT3(D835Y); 0.27 nM on FLT3(ITD, F691L); 3.8 nM at FLT3(N841I); 19 nM on FLT3(R834Q). The figures for the viability at 0.03 µM in series [1] (setting [2]) and in series [1] (setting [3]) were not below 30% and not below 50%, respectively. Besides, in series [1], the “cell viability decreased than brigatinib in combination with cetuximab” value is listed as “at least 20%”.

As for `COc1cc(N2CCC(N3CCN(C)CC3)CC2)ccc1Nc1ncc(Cl)c(Nc2ccccc2NS(C)(=O)=O)n1` [Example 10, N-(2-((5-chloro-2-((2-methoxy-4-(4-(4-methylpiperazin-1-yl)piperidin-1-yl)phenyl)amino)pyrimidin-4-yl)amino)phenyl)methanesulfonamide], the IC50 stood at 430 nM at EGFR wt., 0.7 nM on EGFR del19 and 4 nM at EGFR del19/T790M. The Kd at FLT3(D835Y) was 4.2 nM; at FLT3(ITD, F691L), 1.1 nM; on FLT3(N841I) it was 6.5 nM; at FLT3(R834Q), 33 nM. Besides, the viability at 0.03 µM in series [1] (setting [2]) was not below 30%; in series [1] (setting [3]), not below 50%. Moreover, the “cell viability decreased than brigatinib in combination with cetuximab” value in series [1] is reported as “at least 20%”.
